# Assay results reported in patent US8361758B2, “Microorganism of Corynebacterium genus having resistance to kanamycin and enhanced L-lysine productivity and method of producing L-lysine using the same” (priority 2005, dated 2013).
# Legend:
# [1] = system: Corynebacterium glutamicum KFCC10881; test: Resistance to kanamycin: growth on minimal agar plate medium containing kanamycin; assay type: cell-based; details: Kanamycin 5 mg/l, cultured four days, parent strain
# Protocol: (§1) Next, an experiment of resistance to kanamycin with respect to the selected mutant resistant to kanamycin, Corynebacterium glutamicum KFCC10881-CJP5103, and the parent bacteria was performed. First, the two microorganisms were cultured in a Luria Bertani (LB) liquid medium for 16 hours, and then the cells were washed using sterile normal saline two times. Then, the washed cells were properly diluted and the resulting product was cultured in a minimal agar plate medium containing kanamycin having a concentration of 5 mg/l for four days to measure productivity of each microorganism. A composition of the minimal agar plate medium is the same as follows: 10 g of glucose, 2 g of (NH4)2SO4, 2 g of urea, 1.0 g of KH2PO4, 3.0 g of K2HPO4, 0.5 g of MgSO4.7H2O, 10 mg of FeSO4.7H2O, 10 mg of MnSO4.7H2O, 100 μg of biotin, 100 lag of thiamine. HCl, 100 μg of CaCl2.2H2O, 80 μg of Na2B4O7.10H2O, 40 μg of (NH4)6MoO27.4H2O, 10 μg of ZnSO4.7 H2O, 300 μg of CuSO4.7 H2O, 10 μg of MnCl2.4H2O, 1 mg of FeCl3.6H2O, 20 g of agar, 0.1 g of L-leucine if necessary, 0.1 g of L-threonine if necessary, 0.1 g of L-methionine if necessary, per 1 L of distilled water (pH 7.0).
# (§2) The results of measuring productivity of the mutant and the parent bacteria in a kanamycin-containing medium are shown in Table. 1.
# [2] = system: Corynebacterium glutamicum KFCC10881-CJP5103; test: as above; assay type: cell-based; details: Kanamycin 5 mg/l, cultured four days, kanamycin-resistant mutant
# Protocol: as §1, §2
compound,measurement,setting,value
"NC[C@H]1O[C@H](O[C@H]2[C@H](O)[C@@H](O[C@H]3O[C@H](CO)[C@@H](O)[C@H](N)[C@H]3O)[C@H](N)C[C@@H]2N)[C@H](O)[C@@H](O)[C@@H]1O [Kanamycin, kanamycin]",Growth of KFCC-10881 in kanamycin-containing medium,[1],−
same,Growth of KFCC-10881-CJP5103 in kanamycin-containing medium,[2],+++
